Data: paper PMC11574021, “CEP192 localises mitotic Aurora-A activity by priming its interaction with TPX2” (The EMBO Journal, 2024)

System: Aurora-A in U251 cells
Experiment: Immunofluorescence, Aurora-A spindle pole signal intensity, U251
Assay type: cell-based, Homo sapiens
Conditions: U251, siRNA 48 h or Aurora-A inhibitor 30 min (250 nM)
Description: Drugs were resuspended in DMSO to the stock concentrations indicated in square brackets.
For immunofluorescence, 1 × 10^5 cells were seeded in six-well plates and simultaneously transfected with 60 pmol siRNA duplex and 3 µl transfection reagent diluted in 200 µl Opti-MEM serum-free medium. Growth medium was added to a final volume of 2 ml. For western blotting, 1 × 10^6 cells were seeded in 10 cm dishes and transfected with 300 pmol siRNA duplex and 15 µl transfection reagent diluted in 1000 µl Opti-MEM. Growth medium was added to a final volume of 10 ml. Cells were incubated with siRNA for 48 h prior to fixation or harvesting. As a negative control (siControl) Silencer select negative control No.1 siRNA was transfected as above. For TACC3 depletion, where two siRNA duplexes were used, 40 pmol of each was transfected per well.
For siRNA depletion, 1 × 10^5 cells were seeded in six-well plates and transfected as described above for 48 h prior to fixation. For all other experiments, 2.5 × 10^5 cells were seeded in six-well plates and grown for 24 h before fixation. […] Cells in Fig. EV4A were fixed using 4% (wt/v) paraformaldehyde (PFA) in PBS for 12 min, followed by 10 min quenching in 50 mM NH4Cl in PBS and 5 min of permeabilization with 0.2% (v/v) Triton X-100 in PBS, all at room temperature. For centriole staining in Fig. EV4E, cells were fixed in pre-chilled methanol for 10 min at −20 °C, incubated in PBS for 10 min and then 5 min in 0.5% Triton-X-100, 0.5% Tween, 0.05% SDS in PBS (v/v). To observe centromere and kinetochore staining in Fig. 7C and Appendix Fig. S8A, cells were fixed with PTEMF buffer (20 mM PIPES pH 6.8, 0.2% (v/v) Triton X-100, 10 mM EGTA, 1 mM MgCl2, 4% PFA (wt/v) in PBS) for 12 min at room temperature. For all other experiments, cells were fixed in pre-chilled methanol for 5 min at −20 °C. Following fixation, coverslips were blocked in 2% BSA (wt/v), 0.1% Tween (v/v) in PBS, this and all antibody incubation steps were carried out for 1 h at room temperature, unless otherwise stated. Primary and secondary antibody (Life technologies) dilutions were made in 0.1% Tween, PBS, with secondary staining being conducted in the dark. Coverslips were gently washed with three x 2 ml 0.2% Tween, PBS between antibody incubation steps. […]
Here “area” refers to the area of DAPI-stained DNA, determined by thresholding (default mode) the region of interest. […] The diameter calculated, therefore, refers to that of a circle with equivalent area to the DAPI signal measured previously. The area of the nuclear DAPI signal (Appendix Fig. S6I) was determined by thresholding (as above). […] All fluorescence intensity and area measurements were obtained from maximum intensity z-projections. […]

5′-CAAACAACUUGGAAAUCGAtt-3′ [siCEP192]
spindle (pole)-associated Aurora-A level: significant drop

5′-CGGUAGUGAUAAAAGCUCAtt-3′ [siTPX2]
spindle (pole)-associated Aurora-A level (listed as TPX2 depletion): complete loss of Aurora-A from mitotic spindles | spindle (pole)-associated Aurora-A level (listed as depletion of TPX2): diminished levels of spindle pole-associated Aurora-A

COc1cc(Nc2ncc3c(n2)-c2ccc(Cl)cc2C(c2c(F)cccc2OC)=NC3)ccc1C(=O)O [Alisertib]
spindle (pole)-associated Aurora-A level (listed as Aurora-A inhibition): significant drop
